Each structure is given as a SMILES string. Some results are limits rather than exact numbers.

For the compound `Cc1nn(-c2ccccn2)c2[nH]c3cc(Cl)c(F)cc3c(=O)c12` [Example 2-97, 7-Chloro-6-fluoro-3-methyl-1-(2-pyridinyl)-1,9-dihydro-4H-pyrazolo[3,4-b]quinolin-4-one], the melting point is 264 to 265 °C.

For `Cc1nn(-c2ccccn2)c2nc3ccccc3c(OC3CCCCC3)c12` [Example 2-22, 4-Cyclohexyloxy-3-methyl-1-(2-pyridinyl)-1H-pyrazolo[3,4-b]quinoline], the melting point fell in the range of 88 to 91 °C. Under `Cc1nn(-c2ccccn2)c2c1c(=O)c1ccccc1n2C` [Example 2-14, 3,9-Dimethyl-1-(2-pyridinyl)-1,9-dihydro-4H-pyrazolo[3,4-b]quinolin-4-one] stands 192 to 193 °C; under `Cc1nn(-c2ccccn2)c2nc3ccc(Cl)cc3c(N)c12` [Example 2-71, 6-Chloro-3-methyl-1-(2-pyridinyl)-1H-pyrazolo[3,4-b]quinolin-4-ylamine], 289 to 292 °C. As for `CC(C)c1nn(-c2ccccn2)c2nc3ccccc3c(Cl)c12` [Example 2-172, 4-Chloro-3-isopropyl-1-(2-pyridinyl)-1H-pyrazolo[3,4-b]quinoline], the figure is 146 to 148 °C.

Regarding `COc1ccc2nc3c(c(C)nn3-c3ccccn3)c(Cl)c2c1` [Example 2-41, 4-Chloro-6-methoxy-3-methyl-1-(2-pyridinyl)-1H-pyrazolo[3,4-b]quinoline], the melting point was in the range of 186 to 187 °C.

Consider `Cc1nn(-c2ccccn2)c2nc(O)c3c(c12)CCC3` [Example 1-28, 1-Methyl-3-(2-pyridinyl)-3,6,7,8-tetrahydrocyclopenta[d]pyrazolo[3,4-b]pyridin-5-ol], for which the melting point lay within 255 to 256 °C.

With `Cc1cccnc1-n1nc(C)c2c(Cl)c3c(C)cccc3nc21` [Example 2-123, 4-Chloro-3,5-dimethyl-1-(3-methyl-2-pyridinyl)-1H-pyrazolo[3,4-b]quinoline], the melting point lay in the range of 176 to 178 °C. Consider `Cc1nn(-c2ccccn2)c2nc3ccccc3c(C)c12` [Example 2-101, 3,4-Dimethyl-1-(2-pyridinyl)-1H-pyrazolo[3,4-b]quinoline], for which the melting point was 157 to 159 °C. As for `Cc1nn(-c2ccccn2)c2ncc(C(=O)Nc3ccccc3F)c(O)c12` [Example 1-12, N-(2-Fluorophenyl)-4-hydroxy-3-methyl-1-(2-pyridinyl)-1H-pyrazolo[3,4-b]pyridine-5-carboxamide], the melting point was more than 300 °C.

In turn, `Cc1nn(-c2ccccn2)c2nc3ccccc3c(C#N)c12` [Example 2-107, 3-Methyl-1-(2-pyridinyl)-1H-pyrazolo[3,4-b]quinoline-4-carbonitrile] returned a melting point of 210 to 211 °C.

Turning to `CCOC(=O)c1cnc2c(cnn2-c2ccccn2)c1O` [Example 1-6, Ethyl 4-hydroxy-1-(2-pyridinyl)-1H-pyrazolo[3,4-b]pyridine-5-carboxylate], the melting point lay within 195 to 197 °C. Compound `Cc1nn(-c2ccccn2)c2nc(O)c3c(c12)CCCCC3` [Example 1-30, 1-Methyl-3-(2-pyridinyl)-3,6,7,8,9,10-hexahydrocyclohepta[d]pyrazolo[3,4-b]pyridin-5-ol] showed a melting point of 243 to 244 °C. `Cc1nn(-c2ccccn2)c2ncc(C(=O)N3CCCCC3)c(O)c12` [Example 1-10, [4-Hydroxy-3-methyl-1-(2-pyridinyl)-1H-pyrazolo[3,4-b]pyridin-5-yl](1-piperidinyl)methanone] showed a melting point of 264 to 266 °C.

Compound `Cc1nn(-c2ccccn2)c2ncc(C(=O)Nc3ccc(F)cc3)c(O)c12` [Example 1-14, N-(4-Fluorophenyl)-4-hydroxy-3-methyl-1-(2-pyridinyl)-1H-pyrazolo[3,4-b]pyridine-5-carboxamide] displayed a melting point of more than 300 °C. `Cc1cccnc1-n1nc(C)c2c(N)c3ccccc3nc21` [Example 2-119, 3-Methyl-1-(3-methyl-2-pyridinyl)-1H-pyrazolo[3,4-b]quinolin-4-ylamine] displayed a melting point of 202 to 205 °C.

With `CCc1nn(-c2ccccn2)c2[nH]c3cc(F)c(F)cc3c(=O)c12` [Example 2-201, 3-Ethyl-6,7-difluoro-1-(2-pyridinyl)-1,9-dihydro-4H-pyrazolo[3,4-b]quinolin-4-one], the melting point lay within 247 to 248 °C. Compound `CCOc1cccc(-n2nc(C)c3c(=O)c4cccc(C)c4[nH]c32)n1` [Example 2-130, 3,8-Dimethyl-1-(6-ethoxy-2-pyridinyl)-1,9-dihydro-4H-pyrazolo[3,4-b]quinolin-4-one] displayed a melting point of 239 to 241 °C. In turn, `Cc1nn(-c2ccncc2)c2nc3cc(F)c(F)cc3c(Cl)c12` [Example 2-204, 4-Chloro-6,7-difluoro-3-methyl-1-(4-pyridinyl)-1H-pyrazolo[3,4-b]quinoline] registered a melting point of 226 to 228 °C.

Regarding `Cc1nn(-c2ccncc2)c2[nH]c3ccccc3c(=O)c12` [Example 2-143, 3-Methyl-1-(4-pyridinyl)-1,9-dihydro-4H-pyrazolo[3,4-b]quinolin-4-one], the melting point was more than 300 °C.

`Cc1nn(-c2ccccn2)c2nc3ccc(C(F)(F)F)cc3c(Cl)c12` [Example 2-39, 4-Chloro-3-methyl-1-(2-pyridinyl)-6-(trifluoromethyl)-1H-pyrazolo[3,4-b]quinoline] displayed a melting point of 206 °C. On to `Cc1nn(-c2ccccn2)c2nc3ccccc3c(N)c12` [Example 1-35, 3-Methyl-1-(2-pyridinyl)-1H-pyrazolo[3,4-b]quinolin-4-ylamine], for which the melting point was in the range of 210 to 213 °C. The compound `Cc1nn(-c2ccccn2)c2[nH]c3ccc(N)cc3c(=O)c12` [Example 2-55, 6-Amino-3-methyl-1-(2-pyridinyl)-1,9-dihydro-4H-pyrazolo[3,4-b]quinolin-4-one] registered a melting point of 260 to 262 °C.

`Fc1cc2nc3c(cnn3-c3ccccn3)c(Cl)c2cc1F` [Example 2-198, 4-Chloro-6,7-difluoro-1-(2-pyridinyl)-1H-pyrazolo[3,4-b]quinoline] gave a melting point of 167 to 168 °C. Under `Cc1nn(-c2ccccn2)c2ncc(C(=O)c3ccccc3)c(O)c12` [Example 1-4, [4-Hydroxy-3-methyl-1-(2-pyridinyl)-1H-pyrazolo[3,4-b]pyridin-5-yl]phenylmethanone] stands 224 to 226 °C. Turning to `Cc1nn(-c2ccccn2)c2[nH]c3cc(C(=O)O)ccc3c(=O)c12` [Example 2-68, 3-Methyl-4-oxo-1-(2-pyridinyl)-4,9-dihydro-1H-pyrazolo[3,4-b]quinoline-7-carboxylic acid], the melting point was more than 300 °C.

Turning to `CCOc1cccc(-n2nc(C)c3c(=O)c4c(C)cccc4[nH]c32)n1` [Example 2-122, 3,5-Dimethyl-1-(6-ethoxy-2-pyridinyl)-1,9-dihydro-4H-pyrazolo[3,4-b]quinolin-4-one], the melting point lay in the range of 213 to 215 °C. `Cc1nn(-c2ccccn2)c2[nH]c3c(F)cccc3c(=O)c12` [Example 2-85, 8-Fluoro-3-methyl-1-(2-pyridinyl)-1,9-dihydro-4H-pyrazolo[3,4-b]quinolin-4-one] yielded a melting point of 241 °C. With `Cc1nn(-c2ccccn2)c2nc3cc(F)c(F)cc3c(OC(C)C)c12` [Example 2-95, 6,7-Difluoro-4-isopropoxy-3-methyl-1-(2-pyridinyl)-1H-pyrazolo[3,4-b]quinoline], the melting point lay within 159 to 160 °C. On to `COc1ccc(-c2nn(-c3ccccn3)c3[nH]c4ccccc4c(=O)c23)cc1` [Example 2-185, 3-(4-Methoxyphenyl)-1-(2-pyridinyl)-1,9-dihydro-4H-pyrazolo[3,4-b]quinolin-4-one], for which the melting point lay within 197 to 199 °C.

`Cc1cccc2nc3c(c(C)nn3-c3ccccn3)c(Cl)c12` [Example 2-29, 4-Chloro-3,5-dimethyl-1-(2-pyridinyl)-1H-pyrazolo[3,4-b]quinoline] displayed a melting point of 167 to 169 °C. In turn, `Cc1cccc2c(N)c3c(C)nn(-c4ccccn4)c3nc12.Cl` gave a melting point of 283 to 286 °C. In turn, `O=c1c2ccccc2[nH]c2c1c(C(F)(F)F)nn2-c1ccccn1` [Example 2-167, 1-(2-Pyridinyl)-3-trifluoromethyl-1,9-dihydro-4H-pyrazolo[3,4-b]quinolin-4-one] came in with a melting point of 231 to 233 °C. As for `CCCc1c2ccccc2nc2c1c(C)nn2-c1ccccn1` [Example 2-103, 3-Methyl-4-propyl-1-(2-pyridinyl)-1H-pyrazolo[3,4-b]quinoline], the melting point was 108 to 109 °C. Under `COC(=O)Cc1nn(-c2ccccn2)c2[nH]c3ccccc3c(=O)c12` [Example 2-176, Methyl 2-[4-oxo-1-(2-pyridinyl)-4,9-dihydro-1H-pyrazolo[3,4-b]quinolin-3-yl]acetate] stands 240 to 241 °C.

Take `Cc1nn(-c2ccccn2)c2nc3ccc([N+](=O)[O-])cc3c(Cl)c12` [Example 2-53, 4-Chloro-3-methyl-6-nitro-1-(2-pyridinyl)-1H-pyrazolo[3,4-b]quinoline]: the melting point is 282 °C.

Compound `Cc1nn(-c2ccccn2)c2[nH]c3c(c(=O)c12)CCCC3` [Example 2-194, 3-Methyl-1-(2-pyridinyl)-1,5,6,7,8,9-hexahydro-4H-pyrazolo[3,4-b]quinolin-4-one] gave a melting point of 172 to 173 °C. Under `Cc1nn(-c2nccs2)c2nc3ccccc3c(Cl)c12` [Example 2-149, 4-Chloro-3-methyl-1-(1,3-thiazol-2-yl)-1H-pyrazolo[3,4-b]quinoline] stands 208 to 209 °C; under `CC(C)c1nn(-c2ccccn2)c2[nH]c3ccccc3c(=O)c12` [Example 2-173, 3-Isopropyl-1-(2-pyridinyl)-1,9-dihydro-4H-pyrazolo[3,4-b]quinolin-4-one], 143 to 144 °C.

`COC(=O)c1ccc2c(Cl)c3c(C)nn(-c4ccccn4)c3nc2c1` [Example 2-66, Methyl 4-chloro-3-methyl-1-(2-pyridinyl)-1H-pyrazolo[3,4-b]quinoline-7-carboxylate]: the melting point was in the range of 239 to 240 °C.

`Cc1nn(-c2ccccn2)c2[nH]c3cc(N)ccc3c(=O)c12` [Example 2-59, 7-Amino-3-methyl-1-(2-pyridinyl)-1,9-dihydro-4H-pyrazolo[3,4-b]quinolin-4-one]: the melting point lay within 284 to 286 °C.

For orientation: melting point means the temperature of the solid-liquid transition.
